Results published in US10087148B2, “Quinazolines as biogenic amine transport modulators” (THE UNITED STATES OF AMERICA AS REPRESENTED BY THE …, priority 2014, dated 2018).

Experiments:
[1] = biological target: dopamine transporter (DAT) (Rattus norvegicus (Rat), UniProt P23977); test: [3H]dopamine (DA) uptake inhibition in rat brain (caudate) synaptosomes; assay type: biochemical; settings: mean ± S.D.; n = 3; read-out: DAT Uptake Emax
Description: Uptake inhibition assay for the dopamine transporter was conducted in rat brain synaptosomes as described elsewhere with minor modifications (Rothman et al., Synapse 39, 32-41 (2001)). Freshly removed caudate was homogenized in 10% ice-cold sucrose with 12 strokes of a hand-held Potter-Elvehjem homogenizer followed by centrifugation at 1000×g for 10 min. The supernatants were saved on ice and used immediately. Transporter activity was assessed using 5 nM [^3H]dopamine. The assay buffer was Krebs-phosphate buffer containing 154.4 mM NaCl, 2.9 mM KCl, 1.1 mM CaCl2, 0.83 mM MgCl2, 5 mM glucose, 1 mg/mL ascorbic acid, and 50 μM pargyline. The selectivity of the uptake assay for DAT was optimized by including 100 nM citalopram and 100 nM desipramine as blockers of SERT and NET in the sucrose solution and assay buffer. Uptake inhibition assays were conducted at 25° C. and were initiated by adding 100 μl of tissue to 900 μL assay buffer containing test drug and [^3H]dopamine. Test drugs were diluted in assay buffer containing 1 mg/mL bovine serum albumin. Nonspecific uptake was measured by incubating in the presence of 10 μM indatraline. The reactions were stopped after 15 minutes by rapid vacuum filtration with a cell harvester (BRANDEL) over GF/B filters (Whatman) presoaked in wash buffer maintained at 25° C. (10 mM Tris-HCl, pH 7.4/150 mM NaCl). Filters were rinsed with 6 mL wash buffer and retained tritium was quantified by a MicroBeta liquid scintillation counter (PerkinElmer) after overnight extraction in 0.6 mL of liquid scintillation cocktail (Cytoscint, ICN). The data from three experiments were pooled and fit to a dose-response curve equation (using Kaleidagraph), to yield an Emax and EC50 value.
(§1) All of the test compounds were synthesized as described herein. Next, 8-point dose-response curves were generated for each compound (1-20,000 nM) in the [^3H]DA uptake assay. The data from three experiments were pooled and fit to a dose-response curve equation (using KaleidaGraph; Synergy Software, Reading, Pa.) to yield an Emax and IC50 value. […] Selected compounds were also tested for their ability to inhibit [^3H]WIN35428 binding to rat caudate DAT.

[2] = biological target: serotonin transporter (SERT) (Rattus norvegicus (Rat), UniProt P31652); test: [3H]serotonin (5-HT) uptake inhibition in rat brain synaptosomes; assay type: biochemical; settings: mean ± S.D.; n = 3; read-out: SERT Uptake Emax
Description: Uptake inhibition assay for the serotonin transporter was conducted in rat brain synaptosomes as described elsewhere with minor modifications (Rothman et al., Synapse 39, 32-41 (2001)). Freshly removed whole brain minus cerebellum and caudate was homogenized in 10% ice-cold sucrose with 12 strokes of a hand-held Potter-Elvehjem homogenizer followed by centrifugation at 1000×g for 10 min. The supernatants were saved on ice and used immediately. Transporter activity at SERT was assessed using 5 nM [^3H]serotonin. The assay buffer was Krebs-phosphate buffer containing 154.4 mM NaCl, 2.9 mM KCl, 1.1 mM CaCl2, 0.83 mM MgCl2, 5 mM glucose, 1 mg/mL ascorbic acid, and 50 μM pargyline. […] Uptake inhibition assays were conducted at 25° C. and were initiated by adding 100 μL of tissue to 900 μL assay buffer containing test drug and [^3H]serotonin. Test drugs were diluted in assay buffer containing 1 mg/mL bovine serum albumin. Nonspecific uptake was measured by incubating in the presence of 10 μM indatraline. The reactions were stopped after 30 min by rapid vacuum filtration with a cell harvester (BRANDEL) over GF/B filters (Whatman) presoaked in wash buffer maintained at 25° C. (10 mM Tris-HCl, pH 7.4/150 mM NaCl). Filters were rinsed with 6 mL wash buffer and retained tritium was quantified by a MicroBeta liquid scintillation counter (PerkinElmer) after overnight extraction in 0.6 mL of liquid scintillation cocktail (Cytoscint, ICN). The data from three experiments were pooled and fit to a dose-response curve equation (using Kaleidagraph), to yield an Emax and EC50 value.

[3] = biological target: norepinephrine transporter (NET) (Rattus norvegicus, UniProt Q63380); test: [3H]norepinephrine (NE) uptake inhibition in rat brain synaptosomes; assay type: biochemical; settings: for Emax: read-out: NET Uptake Emax; for IC50: read-out: NET Uptake IC50, mean ± S.D., n = 3
Description: Uptake inhibition assay for the norepinephrine transporter was conducted in rat brain synaptosomes as described elsewhere with minor modifications (Rothman et al., Synapse 39, 32-41 (2001)). Freshly removed whole brain minus cerebellum and caudate was homogenized in 10% ice-cold sucrose with 12 strokes of a hand-held Potter-Elvehjem homogenizer followed by centrifugation at 1000×g for 10 minutes. The supernatants were saved on ice and used immediately. Transporter activity at NET was assessed using 10 nM [^3H]norepinephrine. The assay buffer was Krebs-phosphate buffer containing 154.4 mM NaCl, 2.9 mM KCl, 1.1 mM CaCl2, 0.83 mM MgCl2, 5 mM glucose, 1 mg/mL ascorbic acid, and 50 μM pargyline. […] Uptake inhibition assays were conducted at 37° C. and were initiated by adding 100 μL of tissue to 900 μL assay buffer containing test drug and [^3H]norepinephrine. Test drugs were diluted in assay buffer containing 1 mg/mL bovine serum albumin. Nonspecific uptake was measured by incubating in the presence of 10 μM indatraline. The reactions were stopped after 10 minutes by rapid vacuum filtration with a cell harvester (BRANDEL) over GF/B filters (Whatman) presoaked in wash buffer maintained at 25° C. (10 mM Tris-HCl, pH 7.4/150 mM NaCl). Filters were rinsed with 6 mL wash buffer and retained tritium was quantified by a MicroBeta liquid scintillation counter (PerkinElmer) after overnight extraction in 0.6 mL of liquid scintillation cocktail (Cytoscint, ICN). The data from three experiments were pooled and fit to a dose-response curve equation (using Kaleidagraph), to yield an Emax and EC50 value.

[4] = biological target: DAT (Rattus norvegicus (Rat), UniProt P23977); test: Inhibition of [3H]WIN35428 binding to rat caudate DAT; settings: [3H]WIN35428, mean ± S.D., n = 3; for IC50: unit as printed in head (text gives 1100 nM where table prints 1.1)
Description: as §1, with “Next, 8-point dose-response curves were generated for each compound (1-20,000 nM) in the [^3H]DA uptake assay.” left out

Chain of norepinephrine transporter (NET) (Q63380 1-617): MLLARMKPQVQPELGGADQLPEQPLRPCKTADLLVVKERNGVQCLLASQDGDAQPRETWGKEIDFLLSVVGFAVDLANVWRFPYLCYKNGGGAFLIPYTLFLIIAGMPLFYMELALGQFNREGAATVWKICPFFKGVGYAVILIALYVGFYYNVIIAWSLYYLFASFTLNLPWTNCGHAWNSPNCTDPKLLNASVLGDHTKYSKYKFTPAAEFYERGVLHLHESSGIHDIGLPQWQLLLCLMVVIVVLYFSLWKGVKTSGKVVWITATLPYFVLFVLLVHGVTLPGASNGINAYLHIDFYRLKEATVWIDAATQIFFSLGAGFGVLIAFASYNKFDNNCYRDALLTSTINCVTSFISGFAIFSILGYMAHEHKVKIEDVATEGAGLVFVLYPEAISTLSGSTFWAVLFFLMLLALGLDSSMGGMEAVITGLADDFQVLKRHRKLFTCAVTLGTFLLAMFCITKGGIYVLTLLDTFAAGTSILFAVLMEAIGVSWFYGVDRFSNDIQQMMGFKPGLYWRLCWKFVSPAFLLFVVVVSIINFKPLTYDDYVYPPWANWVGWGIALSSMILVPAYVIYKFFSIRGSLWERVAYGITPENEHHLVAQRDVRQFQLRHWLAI
Chain of dopamine transporter (DAT) (P23977 whole entry): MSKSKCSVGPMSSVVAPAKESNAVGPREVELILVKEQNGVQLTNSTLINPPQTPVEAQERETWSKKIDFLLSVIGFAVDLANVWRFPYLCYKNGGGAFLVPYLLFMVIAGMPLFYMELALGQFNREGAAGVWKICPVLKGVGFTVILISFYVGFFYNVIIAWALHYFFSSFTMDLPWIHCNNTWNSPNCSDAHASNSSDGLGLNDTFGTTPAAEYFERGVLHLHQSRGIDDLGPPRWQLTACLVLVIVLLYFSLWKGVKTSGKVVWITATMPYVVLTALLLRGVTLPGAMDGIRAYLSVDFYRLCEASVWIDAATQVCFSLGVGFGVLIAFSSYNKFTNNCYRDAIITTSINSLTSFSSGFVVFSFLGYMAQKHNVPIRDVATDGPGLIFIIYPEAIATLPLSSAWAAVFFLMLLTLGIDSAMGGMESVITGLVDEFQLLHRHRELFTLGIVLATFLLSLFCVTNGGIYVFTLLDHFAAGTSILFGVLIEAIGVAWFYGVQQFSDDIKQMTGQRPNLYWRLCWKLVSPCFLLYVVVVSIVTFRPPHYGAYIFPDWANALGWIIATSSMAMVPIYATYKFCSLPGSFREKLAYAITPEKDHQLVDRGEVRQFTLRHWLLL
Chain of DAT (P23977 whole entry): as above
Chain of serotonin transporter (SERT) (P31652 whole entry): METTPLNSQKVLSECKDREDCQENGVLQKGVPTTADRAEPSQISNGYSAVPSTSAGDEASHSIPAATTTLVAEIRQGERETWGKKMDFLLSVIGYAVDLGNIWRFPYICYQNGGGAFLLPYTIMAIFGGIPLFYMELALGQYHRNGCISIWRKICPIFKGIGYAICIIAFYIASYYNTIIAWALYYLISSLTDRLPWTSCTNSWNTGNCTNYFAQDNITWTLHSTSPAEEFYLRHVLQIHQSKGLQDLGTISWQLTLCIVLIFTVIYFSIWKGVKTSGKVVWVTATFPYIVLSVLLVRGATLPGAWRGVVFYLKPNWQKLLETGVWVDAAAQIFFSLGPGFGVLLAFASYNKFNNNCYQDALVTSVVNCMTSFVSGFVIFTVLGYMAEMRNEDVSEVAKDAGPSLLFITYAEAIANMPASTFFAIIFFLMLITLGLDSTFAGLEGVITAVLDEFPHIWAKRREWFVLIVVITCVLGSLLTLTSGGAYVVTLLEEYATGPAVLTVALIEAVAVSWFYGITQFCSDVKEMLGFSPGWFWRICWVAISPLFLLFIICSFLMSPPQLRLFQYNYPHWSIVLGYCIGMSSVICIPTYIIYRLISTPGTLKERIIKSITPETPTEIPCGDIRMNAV

Compound	Emax [1] [%]	Emax [2] [%]	Emax [3] [%]	IC50 [3] [nM]	Emax [4] [%]	IC50 [4] [nM]
CNc1ncc(-c2nc(NCC(c3ccccc3)c3ccccc3)c3ccccc3n2)cn1 [SRI-29554]	71 ± 1	60 ± 3	78 ± 2	179 ± 27	59 ± 6	980 ± 460
Cn1cc2cc(-c3nc(NCC(c4ccccc4)c4ccccc4)c4ccccc4n3)ccc2n1 [SRI-29776]	69 ± 2	61 ± 2	71 ± 3	229 ± 43	58 ± 3	6090 ± 970
CN(C)c1ncc(-c2nc(NCC(O)(c3ccccc3)c3ccccc3)c3ccccc3n2)cn1 [SRI-29982]	73 ± 2	51 ± 1	71 ± 2	259 ± 41	47 ± 6	2460 ± 1210
OC(CNc1nc(-c2ccc3[nH]ccc3c2)nc2ccccc12)(c1ccccc1)c1ccccc1 [SRI-29983]	70 ± 2	57 ± 2	73 ± 6	203 ± 79	55 ± 3	1290 ± 340
c1ccc(C(CNc2nc(-c3cnc4nccn4c3)nc3ccccc23)c2ccccn2)cc1 (stereo not drawn) [SRI-30507]	71 ± 2	54 ± 2	77 ± 2	132 ± 16	62 ± 7	4800 ± 1810
OC(CNc1nc(-c2cnc3nccn3c2)nc2ccccc12)(c1ccccc1)c1ccccc1 [SRI-30508]	65 ± 1	56 ± 1	76 ± 9	69 ± 18	34 ± 3	150 ± 90
c1ccc(C(CNc2nc(-c3ccc4nccn4c3)nc3ccccc23)C2CCCCC2)cc1 (stereo not drawn) [SRI-30513]	72 ± 2	59 ± 4	65 ± 4	153 ± 55	50 ± 4	2970 ± 1030
c1ccc(C(CNc2nc(-c3ccc4nccn4c3)nc3ccccc23)c2cccnc2)cc1 (stereo not drawn) [SRI-30946]	70 ± 2	59 ± 3	75 ± 3	78 ± 17	44 ± 3	1170 ± 320
